The results in this text go back to the OligoGym collection.

These antisense oligonucleotides have a phosphorothioate backbone; sugars and methylation of C are not fully specified.
Also: test concentration or dose not given here.

The target in one data set is PTPN11. The conditions noted are these: ASO.
The sequence GAAAGAACAAAATCTCCAGG displayed a remaining target (mRNA or protein) (fraction of control) of at least 1. Turning to CATCTCCGCGATGTCATGTT, the remaining target (mRNA or protein) (fraction of control) was found to be 0.49. On to AGAGCATACTCATCAGGCCA, for which the remaining target (mRNA or protein) (fraction of control) stood at 0.2. ATGTCATGTTCCTCCCGCCC showed a remaining target (mRNA or protein) (fraction of control) of 0.43. As for ACATAAACTTTCTTGCGTCT, the remaining target (mRNA or protein) (fraction of control) worked out at 0.88. With CGCACCATCTGGATGGTTTT, the remaining target (mRNA or protein) (fraction of control) worked out at 0.5. In the case of TCAACCACATTGCAAGCCTT, the remaining target (mRNA or protein) (fraction of control) came out at 0.27. ATCTGCACAGTTCAGAGGAT showed a remaining target (mRNA or protein) (fraction of control) of 0.51. Take ATGCTCTCCTGCTTATGGTG: the remaining target (mRNA or protein) (fraction of control) stood at 0.37. As for ACGGACCCGCTCCTTGCTCA, the remaining target (mRNA or protein) (fraction of control) was determined as 0.48.

With TACAAGAAAACTACCATGTT, the remaining target (mRNA or protein) (fraction of control) was at least 1. Take TTGATGTGGGTGACAGCTCC: the remaining target (mRNA or protein) (fraction of control) came to 0.42. On to TTTAAATGGTTTCAAATTTT, for which the remaining target (mRNA or protein) (fraction of control) was at least 1. Consider ATCTATTTCTGTGCTGAAGT, for which the remaining target (mRNA or protein) (fraction of control) stood at 0.66. Still for that read-out and setting: as for TCATCTGAAACTTTTCTGCT, the figure is 0.84; as for CACGTTTTCATAGACTCTAG, 0.71; as for TCCACTCGTCTGGTCCGCTA, 0.29.

The sequence TTTAGACTTGCCGTCATTGC displayed a remaining target (mRNA or protein) (fraction of control) of 0.32.

CGATGTCATGTTCCTCCCGC registered a remaining target (mRNA or protein) (fraction of control) of 0.4. Take AAGAATATCAATCACAATGA: the remaining target (mRNA or protein) (fraction of control) was at least 1. Sequence CCTGCGCTGTAGTGTTTCAA came in with a remaining target (mRNA or protein) (fraction of control) of 0.5. Still for that read-out and setting: the figure for AAACCATCTCCGCGATGTCA is 0.41; for TCCACCATAGGATTCTTCTT it is 0.43; for TCCGCGATGTCATGTTCCTC it is 0.26. TGTTCCTCCCGCCCTCCGGC: the remaining target (mRNA or protein) (fraction of control) was at least 1. Sequence CGCGATGTCATGTTCCTCCC displayed a remaining target (mRNA or protein) (fraction of control) of 0.45. The sequence GGCCCGCTCGGGACCGGACG had a remaining target (mRNA or protein) (fraction of control) of 0.75. Sequence ACACCAGTGATATTTGGGTG came in with a remaining target (mRNA or protein) (fraction of control) of at least 1. Sequence GGCAGGTTTTCTCATCTGAA showed a remaining target (mRNA or protein) (fraction of control) of 0.84.

TTCCATGTAATACTGGACCA registered a remaining target (mRNA or protein) (fraction of control) of 0.29. Turning to TTCTTCCCAAAAGCCTTGTT, the remaining target (mRNA or protein) (fraction of control) was determined as 0.67.

Turning to AAAGTCATTCACCGTGTTTT, the remaining target (mRNA or protein) (fraction of control) came out at 0.54.

With GTCATGTTCCTCCCGCCCTC, the remaining target (mRNA or protein) (fraction of control) worked out at 0.24. The sequence CATGTTCCTCCCGCCCTCCG displayed a remaining target (mRNA or protein) (fraction of control) of 0.29. Take AAAGAATCAAACCGTTCTCC: the remaining target (mRNA or protein) (fraction of control) is 0.58. Sequence TTGCATTGATGTAATCTGAA displayed a remaining target (mRNA or protein) (fraction of control) of 0.98.

TCTCCGCGATGTCATGTTCC returned a remaining target (mRNA or protein) (fraction of control) of 0.43. The same measure, in the same setting: the figure for CTGTGGTCTCAGCTAATTTG is 0.35; for ACCATCTCCGCGATGTCATG it is 0.33.

The sequence CCCTTGTCCAACCTTTGAAA had a remaining target (mRNA or protein) (fraction of control) of 0.25.

The target of a further data set is MAP3K1. Particulars: ASO.
TAGTTGATCTGTATAATTGG returned a remaining target (mRNA or protein) (fraction of control) of at least 1.

Regarding CATTCTTGCAGAACTCAAGT, the remaining target (mRNA or protein) (fraction of control) worked out at 0.54. ATTTCCACCTCATCTGCATA: the remaining target (mRNA or protein) (fraction of control) was determined as 0.44. For the sequence TTTTGCATACTGAGCTTAGG, the remaining target (mRNA or protein) (fraction of control) amounted to 0.48. With ACCATTCTTGCAGAACTCAA, the remaining target (mRNA or protein) (fraction of control) was found to be 0.55. Sequence GGTACTGTAGTAACCATTCT gave a remaining target (mRNA or protein) (fraction of control) of 0.53. TTCTTGCAGAACTCAAGTAG showed a remaining target (mRNA or protein) (fraction of control) of at least 1.

CAGAAATGTCCTCTGAACTG: the remaining target (mRNA or protein) (fraction of control) stood at 0.5. Still for that read-out and setting: the figure for CTGTAGTAACCATTCTTGCA is 0.4. Regarding CTGTTCAGTGGCATCATGGC, the remaining target (mRNA or protein) (fraction of control) came out at 0.49. On the same count and under the same terms, as for AATCCTTTTCCAGTTTTCTC, the figure is 0.87. CCCACTCCCCGCTGCGTCCG returned a remaining target (mRNA or protein) (fraction of control) of 0.06.

Consider CAGTTTTGAAAACACATGGG, for which the remaining target (mRNA or protein) (fraction of control) is at least 1. GAATCCCTGAAGTCTATGCT: the remaining target (mRNA or protein) (fraction of control) came to 0.52.

GCAACCCTTTGAGAGTTTCT returned a remaining target (mRNA or protein) (fraction of control) of 0.32.

On to TACTGTAGTAACCATTCTTG, for which the remaining target (mRNA or protein) (fraction of control) came out at 0.74. ATCATGATTTGTCAATCACA: the remaining target (mRNA or protein) (fraction of control) is 0.62. GAGAAAACTTGCGCTGTGTT registered a remaining target (mRNA or protein) (fraction of control) of 0.37. GCACTAGTTTGGGCTTTTGC showed a remaining target (mRNA or protein) (fraction of control) of 0.28. GGGGTACTGTAGTAACCATT: the remaining target (mRNA or protein) (fraction of control) came out at 0.55. Sequence GCTCCTCCGCCGCCGCCTGC gave a remaining target (mRNA or protein) (fraction of control) of 0.27. The same measure, in the same setting: as for CTGGTGAAGTGAGTGGAAAC, the figure is 0.76. CCACTGGCCTCGTTCATAGC: the remaining target (mRNA or protein) (fraction of control) came to 0.21. Sequence GTCTGCCTTTTGTTTGAACC had a remaining target (mRNA or protein) (fraction of control) of 0.67.

ACATACTTAGGTAAGGGTTC yielded a remaining target (mRNA or protein) (fraction of control) of 0.56. Consider GGCAGCCGCGCGCGCGCTGC, for which the remaining target (mRNA or protein) (fraction of control) came out at 0.81. The same measure, in the same setting: as for TTGTTGAACTAGAAGGTCCT, the figure is 0.57; as for GTAGATATCAATGTGGTTCC, 0.75; as for AGTAACCATTCTTGCAGAAC, at least 1.

Sequence TTGTTGAGCATCCTGTTTCT displayed a remaining target (mRNA or protein) (fraction of control) of 0.39. On the same count and under the same terms, the figure for CAGTCCGCCCGCTCGCGGCC is 0.34; for CCACCGACTCGGTAAGGTGG it is 0.81. In turn, TCAGGCAGCTGGTCCAGCTC had a remaining target (mRNA or protein) (fraction of control) of 0.52. Consider CAAGGCTGGAAACATTAATT, for which the remaining target (mRNA or protein) (fraction of control) stood at 0.94.

Turning to GTTGTCGTTGTAAAGTGTCT, the remaining target (mRNA or protein) (fraction of control) was found to be 0.45.

Consider TAACCATTCTTGCAGAACTC, for which the remaining target (mRNA or protein) (fraction of control) was 0.59. GTTTCCAGATAGTTGTTGGG: the remaining target (mRNA or protein) (fraction of control) was 0.85. The same measure, in the same setting: as for TTGTTTTCAGGACAGTTTCT, the figure is 0.65; as for GTAGTAACCATTCTTGCAGA, 0.42. ATTGGGTACTGTAGTAACCA had a remaining target (mRNA or protein) (fraction of control) of 0.54.

The next data set deals with SMAD7. The conditions noted are these: ASO.
In turn, CTGCCCCTTCTTCCAAAA returned a remaining target (mRNA or protein) (fraction of control) of 0.68.

In turn, AAAACCTGATGTCACCAG registered a remaining target (mRNA or protein) (fraction of control) of at least 1. AGTCTGCAGTTGGTTTGA registered a remaining target (mRNA or protein) (fraction of control) of at least 1.

In turn, CAATCTTGTGTTTATCTT returned a remaining target (mRNA or protein) (fraction of control) of at least 1. Regarding GGCAAAAGCCATTCCCCT, the remaining target (mRNA or protein) (fraction of control) came out at 0.72. Consider GATGGTACCTTGGGTTAT, for which the remaining target (mRNA or protein) (fraction of control) worked out at 0.94. AAAACAGAACACAAACGA: the remaining target (mRNA or protein) (fraction of control) was at least 1. On to GCTCAGCTCACGCTCTGT, for which the remaining target (mRNA or protein) (fraction of control) was found to be 0.62.

As to ATTCAGCTAGGTGATAAC, the remaining target (mRNA or protein) (fraction of control) was at least 1. The sequence ACACACAGGATGGGAGCA registered a remaining target (mRNA or protein) (fraction of control) of at least 1.

Take GAGATCCAGGAGCAGATG: the remaining target (mRNA or protein) (fraction of control) is 0.78. Still for that read-out and setting: the figure for TGCATGAAAAGCAAGCAC is 0.91; for CCCTCCTCCTCGTCCTCG it is 0.72; for CGACAGCAGCAGCAGCAG it is 0.82. The same measure, in the same setting: the figure for AATTGGTTCTGGTTCGGC is at least 1; for CTGATCTGCACGGTAAAG it is at least 1.

The sequence TTGGGACTGCAAACCTCT displayed a remaining target (mRNA or protein) (fraction of control) of 0.91. As to GTTGTCTCCCCATCTGCC, the remaining target (mRNA or protein) (fraction of control) was at least 1.

The target of the next data set is PRKACA. Particulars: ASO.
In turn, AAACCACTTGTGGTTCTTGA yielded a remaining target (mRNA or protein) (fraction of control) of 0.66.

For CCCATCGCGGCGGCGGCGGC, the remaining target (mRNA or protein) (fraction of control) was 0.53. As for CGGCGGCGGCGTTGCCCATC, the remaining target (mRNA or protein) (fraction of control) stood at 0.21. Take AGCACAAATGAGAAAGTGGG: the remaining target (mRNA or protein) (fraction of control) was 0.93.

As to TGCAGGGATGCCCTCCCCAC, the remaining target (mRNA or protein) (fraction of control) was determined as 0.35. In turn, GCGTTGCCCATCGCGGCGGC came in with a remaining target (mRNA or protein) (fraction of control) of 0.36.

Take GGCATGCCCCTAAAACTCAG: the remaining target (mRNA or protein) (fraction of control) came to 0.55. The same measure, in the same setting: as for TCTGCGAAGAAGGGCGGGTA, the figure is at least 1; as for CTTCTGTTTGTCGAGGATCT, 0.49. On the same count and under the same terms, as for CCAGCATCACCCGCCCGAAG, the figure is 0.34. In turn, TAGATGAGATCCAGCGAGTG came in with a remaining target (mRNA or protein) (fraction of control) of 0.72. The sequence TTGGCGCTTCGTTCATTTGC came in with a remaining target (mRNA or protein) (fraction of control) of 0.61. Still for that read-out and setting: as for GAACATCTCCCCGCCGGGCA, the figure is 0.87; as for TCCTTCAAGTCAGAGCTGAA, 0.56; as for GCGGCCCTTCACGCGCTTGG, at least 1. For GGCGGCGGCGGCGTTGCCCA, the remaining target (mRNA or protein) (fraction of control) was 0.51. As for GCTTGCAGGATGCGCTTTTC, the remaining target (mRNA or protein) (fraction of control) turned out to be 0.34.
